These results are taken from patent US6395728B2, “Method of treatment and pharmaceutical composition” (Novartis AG, priority 1999, dated 2002).

The test relates to diabetic SHRs. The test is described as follows: Survival of streptozotocin-induced diabetic SHRs under drug treatment. Format: in vivo, rat. Conditions: week 21 of treatment.

Protocol: Diabetes is induced in SHRs aged about 6 to 8 weeks weighing about 250 to 300 g by treatment e.g. with streptozotocin. The drugs are administered by twice daily average. Untreated diabetic SHRs are used as control group (group 1). Other groups of diabetic SHRs are treated with 30 mg/kg of valsartan (group 2), with 20 mg/kg of verapamil (group 3) and with a combination of 20 mg/kg of valsartan and 15 mg/kg of verapamil (group 4). On a regular basis, besides other parameters the survival rate after 21 weeks of treatment is being monitored.

Regarding `COc1ccc(CCN(C)CCCC(C#N)(c2ccc(OC)c(OC)c2)C(C)C)cc1OC` (centres unmarked) [verapamil], the “Survival Rate” value (20 mg/kg of verapamil (group 3)) is 42.9%. As to `CCCCC(=O)N(Cc1ccc(-c2ccccc2-c2nnn[nH]2)cc1)[C@H](C(=O)O)C(C)C` [valsartan, (S)-N-(1-carboxy-2-methyl-prop-1-yl)-N-pentanoyl-N-[2′(1H-tetrazol-5-yl)biphenyl-4-yl-methyl]amine], the “Survival Rate” value (30 mg/kg of valsartan (group 2)) was 45.9%.
